Data from the supplement of paper PMC10331698.
± gives the standard deviation of the averaged measurements.

Columns and labels:
Assay in all cases: level (log10 ratio to DMSO vehicle control); higher = higher biomarker level / cell amount than vehicle control
Conditions in all cases: in DMSO
[1] = compound: O=C(O)C(F)(F)C(F)(F)C(F)(F)C(F)(F)C(F)(F)C(F)(F)C(F)(F)C(F)(F)C(F)(F)C(F)(F)C(F)(F)C(F)(F)F [Perfluorotridecanoic acid]
Protocol: (§1)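 BioMAP Diversity Plus panel of 12 human primary cell co-culture systems (3C, 4H, LPS, SAg, BT, BF4T, BE3C, CASM3C, HDF3CGF, KF3CT, MyoF, Mphg). Compounds were added 1 h before stimulation and left for 24 h (MyoF 48 h; BT 72 h for soluble read-outs or 6 d for IgG). Biomarkers were read by ELISA, cytotoxicity by SRB, PBMC viability and proliferation by Alamar Blue. Each well value was divided by the mean of 8 DMSO control wells on the same plate and log10 transformed; duplicate blinded samples were tested at 4 concentrations.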

[2] = compound: O=C(O)C(F)(F)C(F)(F)C(F)(F)C(=O)O [Hexafluoroglutaric acid]
Protocol: as §1

[3] = compound: NC(=O)C(F)(F)C(F)(F)C(F)(F)C(F)(F)C(F)(F)C(F)(F)C(F)(F)F [Perfluorooctanamide]
Protocol: as §1

[4] = compound: O=C(O)C(F)(F)C(F)(F)C(F)(F)C(F)(F)C(F)(F)C(F)(F)C(F)(F)C(F)(F)C(F)(F)C(F)(F)C(F)(F)C(F)(F)C(F)(F)F [Perfluorotetradecanoic acid]
Protocol: as §1

[5] = compound: Cn1cnc([N+](=O)[O-])c1Sc1ncnc2[nH]cnc12 [Azathioprine]
Protocol: as §1

[6] = compound: OCC(F)(F)C(F)(F)C(F)(F)F [1H,1H-Heptafluorobutanol]
Protocol: as §1

Test System	level (log10) ([1]; 1500 nM)	level (log10) ([1]; 4400 nM)	level (log10) ([1]; 13000 nM)	level (log10) ([1]; 40000 nM)	level (log10) ([2]; 6700 nM)	level (log10) ([2]; 20000 nM)	level (log10) ([2]; 60000 nM)	level (log10) ([3]; 6700 nM)	level (log10) ([3]; 20000 nM)	level (log10) ([3]; 60000 nM)	level (log10) ([4]; 6700 nM)	level (log10) ([4]; 20000 nM)	level (log10) ([5]; 1400 nM)	level (log10) ([5]; 4200 nM)	level (log10) ([5]; 13000 nM)	level (log10) ([5]; 38000 nM)	level (log10) ([6]; 6700 nM)	level (log10) ([6]; 20000 nM)	level (log10) ([6]; 60000 nM)
BE3C:CD54/ICAM-1	0.0015 ± 0.04	-0.0285 ± 0.015	-0.011 ± 0.0085	0.0035 ± 0.0021	0.018 ± 0.0042	0.0095 ± 0.018	0.009 ± 0.02	-0.012 ± 0.0042	-0.0075 ± 0.012	-0.022 ± 0.033	-0.003 ± 0.025	0.015 ± 0.062	0 ± 0.018	-0.0115 ± 0.013	-0.0075 ± 0.0078	-0.001 ± 0.031	-0.0035 ± 0.0092	-0.0105 ± 0.00071	0.0085 ± 0.011
BE3C:CD87/uPAR	0.012 ± 0.038	-0.013 ± 0.0071	0.006 ± 0.018	0.0335 ± 0.03	-0.0045 ± 0.0092	-0.01 ± 0.014	-0.0125 ± 0.011	-0.0475 ± 0.0035	-0.0065 ± 0.035	-0.004 ± 0.028	0.015 ± 0.034	0.065 ± 0.05	0.0185 ± 0.029	-0.014 ± 0.0042	-0.0175 ± 0.057	-0.0435 ± 0.063	-0.0115 ± 0.0092	0.032 ± 0.018	0.0015 ± 0.021
BE3C:CXCL8/IL-8	-0.002 ± 0.045	0.01 ± 0.045	-0.0215 ± 0.00071	0.0115 ± 0.00071	-0.011 ± 0.014	-0.0165 ± 0.0064	-0.011 ± 0.02	0.011 ± 0.0028	0.011 ± 0.0071	-0.0045 ± 0.005	-0.005 ± 0.055	0.0365 ± 0.052	-0.012 ± 0.059	-0.013 ± 0.054	-0.052	-0.088 ± 0.013	0.0275 ± 0.063	0 ± 0.04	0.003 ± 0.033
BE3C:CXCL9/MIG	-0.0015 ± 0.015	-0.0045 ± 0.0035	-0.014 ± 0.0099	-0.0125 ± 0.013	0.001 ± 0.0042	0.008	-0.0055 ± 0.0021	0.0075 ± 0.028	0.0025 ± 0.019	0.012 ± 0.011	-0.016 ± 0.02	-0.006 ± 0.017	-0.006 ± 0.0085	0.0005 ± 0.0035	-0.0025 ± 0.013	-0.0015 ± 0.013	-0.001	0.0025 ± 0.0035	0.007 ± 0.0028
BE3C:CXCL10/IP-10	-0.0015 ± 0.029	-0.019 ± 0.027	-0.038 ± 0.03	-0.0365 ± 0.056	-0.001 ± 0.0042	-0.0085 ± 0.00071	0.0015 ± 0.023	-0.0025 ± 0.028	-0.005 ± 0.0071	-0.0135 ± 0.015	0.008 ± 0.0042	-0.0275 ± 0.019	0.0015 ± 0.028	0.0115 ± 0.028	0.001 ± 0.024	0.001 ± 0.0085	0.0345 ± 0.023	0.0195 ± 0.035	0.0265 ± 0.032
BE3C:CXCL11/I-TAC	0.007 ± 0.0014	-0.048 ± 0.027	-0.089 ± 0.021	0 ± 0.0085	0.0045 ± 0.028	-0.002 ± 0.024	0.0045 ± 0.013	0.0015 ± 0.013	0.004 ± 0.0042	0 ± 0.0014	-0.073 ± 0.052	-0.0135 ± 0.071	-0.0205 ± 0.035	0.008 ± 0.0028	0.01 ± 0.031	0.025 ± 0.051	0.0065 ± 0.0035	0.0145 ± 0.023	0.0085 ± 0.023
BE3C:EGFR	0.0145 ± 0.04	-0.008 ± 0.031	0.0005 ± 0.022	0.006 ± 0.0014	-0.0055 ± 0.0035	-0.0175 ± 0.005	0.0025 ± 0.012	0.012 ± 0.011	-0.002 ± 0.0085	0.035 ± 0.016	0.01 ± 0.014	0.0145 ± 0.044	0.007 ± 0.02	-0.0125 ± 0.0035	-0.0055 ± 0.005	-0.0095 ± 0.019	0.009 ± 0.014	0.0135 ± 0.022	0.016 ± 0.027
BE3C:HLA-DR	-0.0105 ± 0.04	-0.0325 ± 0.013	-0.0355 ± 0.0078	-0.0195 ± 0.019	-0.006	-0.017 ± 0.0014	-0.021 ± 0.028	0.001 ± 0.017	-0.0035 ± 0.0078	0.0025 ± 0.0092	-0.013 ± 0.041	-0.0135 ± 0.06	-0.0075 ± 0.021	-0.0095 ± 0.0021	-0.0165 ± 0.021	-0.032 ± 0.044	-0.0035 ± 0.0021	0.0105 ± 0.00071	0.02 ± 0.03
BE3C:IL-1alpha	0.027 ± 0.04	-0.0165 ± 0.0078	0.0035 ± 0.023	0.024 ± 0.0057	-0.014 ± 0.027	-0.0295 ± 0.005	-0.0045 ± 0.016	-0.015 ± 0.011	-0.003 ± 0.0042	0.0045 ± 0.0064	0 ± 0.033	0.0145 ± 0.005	-0.012 ± 0.0099	0.0045 ± 0.011	-0.019 ± 0.0085	-0.031 ± 0.051	0.003 ± 0.011	-0.0095 ± 0.022	-0.0035 ± 0.018
BF4T:CCL2/MCP-1	0.025 ± 0.0028	0.0195 ± 0.028	0.035 ± 0.0042	0.0175 ± 0.013	0.0015 ± 0.043	-0.0225 ± 0.005	0.0085 ± 0.032	0.011 ± 0.0042	-0.0015 ± 0.0035	-0.009 ± 0.037	0.0095 ± 0.016	0.0045 ± 0.012	0.0185 ± 0.015	0.0025 ± 0.019	-0.006 ± 0.011	-0.021 ± 0.0099	-0.002 ± 0.018	0.003 ± 0.057	-0.0135 ± 0.0021
BF4T:CCL26/Eotaxin-3	-0.0035 ± 0.052	-0.0725 ± 0.022	-0.089 ± 0.04	-0.0555 ± 0.026	0.016 ± 0.054	0.0055 ± 0.042	0.043 ± 0.011	0.016 ± 0.017	-0.0015 ± 0.057	-0.0475 ± 0.0064	-0.074 ± 0.0057	-0.057 ± 0.059	0.0215 ± 0.059	0.025 ± 0.058	0.007 ± 0.014	-0.0025 ± 0.032	0.0275 ± 0.04	0.0405 ± 0.022	0.0315 ± 0.013
BF4T:CD54/ICAM-1	0.01 ± 0.023	0.0115 ± 0.015	-0.01 ± 0.0028	0.0115 ± 0.025	0.0025 ± 0.005	-0.01 ± 0.0057	0.006 ± 0.011	-0.0175 ± 0.0064	-0.006 ± 0.014	-0.015 ± 0.0028	-0.002 ± 0.0099	0.0175 ± 0.025	0.007 ± 0.02	-0.0025 ± 0.013	-0.012 ± 0.0071	-0.0155 ± 0.022	0.0035 ± 0.0021	0.008 ± 0.0085	0.001 ± 0.013
BF4T:CD90	-0.0015 ± 0.016	-0.002 ± 0.016	-0.001 ± 0.013	0.005 ± 0.0014	0.0025 ± 0.0092	0.009 ± 0.0042	0.0175 ± 0.005	-0.0065 ± 0.0021	-0.0035 ± 0.021	-0.0155 ± 0.0035	-0.0125 ± 0.011	-0.005 ± 0.0042	-0.0025 ± 0.00071	-0.0075 ± 0.0035	-0.0305 ± 0.023	-0.024 ± 0.018	-0.0035 ± 0.012	-0.0045 ± 0.021	-0.0045 ± 0.0035
BF4T:CD106/VCAM-1	0.005 ± 0.065	0.007 ± 0.028	0.0035 ± 0.0064	-0.0205 ± 0.0092	-0.0055 ± 0.023	-0.0095 ± 0.0078	-0.002 ± 0.017	-0.009 ± 0.02	0 ± 0.0099	-0.0005 ± 0.03	-0.011 ± 0.014	-0.037 ± 0.031	-0.0185 ± 0.015	-0.026 ± 0.025	-0.038	-0.139 ± 0.016	-0.0155 ± 0.0021	-0.0105 ± 0.019	-0.005 ± 0.0071
